According to ChEMBL document CHEMBL6178014, “Discovery and Administration Optimization of Novel Selective CDK9 Inhibitor, 1-7a-B1, for Improved Pharmacokinetics and Antitumor Efficacy In Vivo” (J Med Chem, 2025):
Activity calls are given as the source filed them. The rule behind the calls is not given here.

Legend:
[1] = biological target: CDK9/cyclin T1 (Homo sapiens, UniProt P50750); assay: Inhibition of His-tagged full length human recombinant CDK9/cyclinT1 using KTFCGTPEYLAPEVRREPRILSEEEQEMFRDFDYIADWC as substrate incubated for 60 mins by ADP-Glo kinase assay; assay type: protein-complex assay
Sequence of CDK9/cyclin T1 (O60563 whole entry): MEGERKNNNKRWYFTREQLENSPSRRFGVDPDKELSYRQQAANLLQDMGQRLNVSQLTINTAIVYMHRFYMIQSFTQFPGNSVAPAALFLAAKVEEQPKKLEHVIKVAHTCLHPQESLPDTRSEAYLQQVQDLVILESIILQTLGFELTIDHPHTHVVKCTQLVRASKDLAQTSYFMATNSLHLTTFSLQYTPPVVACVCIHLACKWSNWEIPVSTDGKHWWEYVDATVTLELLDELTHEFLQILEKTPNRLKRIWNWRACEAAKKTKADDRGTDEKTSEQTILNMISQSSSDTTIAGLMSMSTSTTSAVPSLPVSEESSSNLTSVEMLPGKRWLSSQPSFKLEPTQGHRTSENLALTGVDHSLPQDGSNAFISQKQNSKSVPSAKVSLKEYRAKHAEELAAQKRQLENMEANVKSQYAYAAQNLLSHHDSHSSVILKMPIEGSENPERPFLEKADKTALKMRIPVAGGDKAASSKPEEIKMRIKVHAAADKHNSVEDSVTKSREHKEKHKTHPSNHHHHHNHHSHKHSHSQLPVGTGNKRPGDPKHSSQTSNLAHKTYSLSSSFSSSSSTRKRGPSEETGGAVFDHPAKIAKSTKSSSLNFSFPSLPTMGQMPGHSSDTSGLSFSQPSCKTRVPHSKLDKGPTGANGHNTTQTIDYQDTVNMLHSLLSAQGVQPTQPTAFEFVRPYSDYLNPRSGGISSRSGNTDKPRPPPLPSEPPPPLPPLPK
Sequence of CDK9/cyclin T1 (P50750 whole entry): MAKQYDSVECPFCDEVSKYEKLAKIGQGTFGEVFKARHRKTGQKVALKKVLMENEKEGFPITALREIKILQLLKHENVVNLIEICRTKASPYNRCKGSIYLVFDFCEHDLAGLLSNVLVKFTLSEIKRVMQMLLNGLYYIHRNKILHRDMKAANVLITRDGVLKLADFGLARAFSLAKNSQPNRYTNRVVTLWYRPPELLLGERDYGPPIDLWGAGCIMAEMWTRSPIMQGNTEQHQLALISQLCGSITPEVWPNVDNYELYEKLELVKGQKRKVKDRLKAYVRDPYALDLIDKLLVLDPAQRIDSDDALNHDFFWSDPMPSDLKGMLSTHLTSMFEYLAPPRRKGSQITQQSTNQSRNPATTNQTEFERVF

[2] = test system: HT-29; assay: Antiproliferative activity against human HT-29 cells assessed as inhibition of cell growth incubated for 48 hrs by CCK8 assay; assay type: functional
[3] = biological target: CDK4/Cyclin D3 (Homo sapiens, UniProt P11802); assay: Inhibition of CDK4/cycD3 (unknown origin) by ADP-Glo assay; assay type: protein-complex assay
Sequence of CDK4/Cyclin D3 (P11802 whole entry): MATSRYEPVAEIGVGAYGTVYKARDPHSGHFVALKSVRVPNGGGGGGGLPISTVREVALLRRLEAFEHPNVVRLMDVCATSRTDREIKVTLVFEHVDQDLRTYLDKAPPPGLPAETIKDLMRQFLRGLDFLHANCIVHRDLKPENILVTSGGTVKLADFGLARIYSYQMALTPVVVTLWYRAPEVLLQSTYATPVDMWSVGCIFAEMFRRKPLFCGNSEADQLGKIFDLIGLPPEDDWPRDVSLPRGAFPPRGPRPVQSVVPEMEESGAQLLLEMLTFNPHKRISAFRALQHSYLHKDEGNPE
Sequence of CDK4/Cyclin D3 (P30281 whole entry, further chain): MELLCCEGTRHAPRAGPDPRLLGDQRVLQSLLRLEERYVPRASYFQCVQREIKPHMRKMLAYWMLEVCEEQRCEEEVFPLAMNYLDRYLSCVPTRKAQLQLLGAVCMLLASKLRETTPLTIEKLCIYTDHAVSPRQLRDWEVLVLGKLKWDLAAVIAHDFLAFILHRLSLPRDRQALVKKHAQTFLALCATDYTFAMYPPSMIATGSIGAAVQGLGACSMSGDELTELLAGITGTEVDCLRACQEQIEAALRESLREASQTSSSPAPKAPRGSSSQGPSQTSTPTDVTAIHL

[4] = test system: NCI-H226; assay: Cytotoxicity against human NCI-H226 cells assessed as cell viability incubated for 48 hrs by CCK8 assay; assay type: functional, cell-based
[5] = test system: NCM460; assay: Cytotoxicity against human NCM460 cells assessed as cell viability incubated for 48 hrs by CCK8 assay; assay type: toxicity, cell-based; settings: ncm460, 48 h
[6] = test system: HCT-116; assay: Induction of apoptosis in human HCT-116 cells assessed as increase in total apoptotic cells incubated for 48 hrs by Annexin V-FITC/PI staining based flow cytometry analysis; assay type: functional, cell-based; settings: dose 100-400 nM
[7] = test system: HCT-116; assay: Induction of apoptosis in human HCT-116 cells assessed as increase in apoptotic cells by measuring red fluorescence by TUNEL staining based fluorescence microscopic analysis; assay type: functional, cell-based; settings: dose 50-400 nM
[8] = biological target: Cellular tumor antigen p53 (Homo sapiens) (UniProt P04637); assay: Induction of stabilization of wild type p53 in human HCT-116 cells at 100 to 400 nM incubated for 48 hrs by Western blot analysis; assay type: cell-based; settings: dose 100-400 nM
Sequence of Cellular tumor antigen p53 (Homo sapiens) (P04637 whole entry, looked up): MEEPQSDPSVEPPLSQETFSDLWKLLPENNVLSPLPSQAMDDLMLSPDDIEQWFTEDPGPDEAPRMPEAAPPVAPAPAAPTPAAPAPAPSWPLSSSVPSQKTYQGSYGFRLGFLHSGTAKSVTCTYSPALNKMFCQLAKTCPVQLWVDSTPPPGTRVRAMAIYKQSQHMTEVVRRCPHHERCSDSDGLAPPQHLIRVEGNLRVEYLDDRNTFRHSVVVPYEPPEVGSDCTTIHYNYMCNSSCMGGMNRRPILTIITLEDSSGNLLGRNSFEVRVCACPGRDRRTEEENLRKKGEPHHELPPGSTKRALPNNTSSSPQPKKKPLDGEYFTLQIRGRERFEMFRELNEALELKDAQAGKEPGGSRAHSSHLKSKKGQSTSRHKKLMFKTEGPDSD

[9] = test system: HCT-116; assay: Downregulation of Bcl-2 mRNA level in human HCT-116 cells at 200 to 400 nM incubated for 48 hrs by qRT-PCR analysis; assay type: functional, cell-based; settings: dose 200-400 nM
[10] = test system: HCT-116; assay: Downregulation of Bcl-2 level in human HCT-116 cells at 200 to 400 nM incubated for 48 hrs by Western blot analysis; assay type: functional, cell-based; settings: dose 200-400 nM
[11] = test system: HCT-116; assay: Induction of apoptosis in human HCT-116 cells assessed as increase in PARP cleavage incubated for 48 hrs by Western blot analysis; assay type: functional, cell-based; settings: dose 100-400 nM
[12] = biological target: E3 ubiquitin-protein ligase Mdm2 (Homo sapiens) (UniProt Q00987); assay: Inhibition of MDM2 phosphorylation at ser166 residue in human HCT-116 cells at 100 to 400 nM incubated for 48 hrs by Western blot analysis; assay type: cell-based; settings: dose 100-400 nM
Sequence of E3 ubiquitin-protein ligase Mdm2 (Homo sapiens) (Q00987 whole entry, looked up): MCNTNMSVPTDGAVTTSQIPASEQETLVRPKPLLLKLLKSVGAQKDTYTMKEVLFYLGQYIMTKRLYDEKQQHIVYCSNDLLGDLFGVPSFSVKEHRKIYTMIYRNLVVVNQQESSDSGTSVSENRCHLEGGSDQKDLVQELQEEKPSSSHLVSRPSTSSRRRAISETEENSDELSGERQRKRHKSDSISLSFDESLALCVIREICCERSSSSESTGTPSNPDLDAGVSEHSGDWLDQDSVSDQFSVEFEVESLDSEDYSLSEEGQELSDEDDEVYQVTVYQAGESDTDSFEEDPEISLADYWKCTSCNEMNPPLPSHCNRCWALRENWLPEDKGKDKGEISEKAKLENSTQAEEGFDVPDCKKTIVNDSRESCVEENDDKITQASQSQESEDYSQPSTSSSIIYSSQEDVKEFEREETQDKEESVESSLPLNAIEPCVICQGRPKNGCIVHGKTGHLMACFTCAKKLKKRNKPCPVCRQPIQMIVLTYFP

[13] = test system: HCT-116; assay: Upregulation of Bax expression in human HCT-116 cells at 100 to 400 nM incubated for 48 hrs by Western blot analysis; assay type: functional, cell-based; settings: dose 100-400 nM
[14] = test system: HCT-116; assay: Induction of cell senescence in human HCT-116 cells at 100 to 400 nM incubated for 48 hrs by beta-galactosidase staining based analysis; assay type: functional; settings: dose 100-400 nM
[15] = Metabolic stability in human liver microsome assessed as intrinsic clearance at 100 uM pre-incubated with compound for 60 mins followed by NADPH addition and measured up to 60 mins by LC-MS/MS analysis; assay type: ADME; settings: liver microsomes, read-out: CLH
[16] = Stability in human plasma assessed as half life at 100 uM measured up to 120 mins by LC-MS/MS analysis; assay type: ADME, cell-free
[17] = biological target: CYP2C9 (Homo sapiens, UniProt P11712); assay: Inhibition of CYP2C9 in human liver microsome at 10 uM pre-incubated with compound for 10 mins in presence of NADPH-regenerating system by LC-MS/MS analysis relative to control; assay type: ADME; settings: liver microsomes
Sequence of CYP2C9 (P11712 whole entry): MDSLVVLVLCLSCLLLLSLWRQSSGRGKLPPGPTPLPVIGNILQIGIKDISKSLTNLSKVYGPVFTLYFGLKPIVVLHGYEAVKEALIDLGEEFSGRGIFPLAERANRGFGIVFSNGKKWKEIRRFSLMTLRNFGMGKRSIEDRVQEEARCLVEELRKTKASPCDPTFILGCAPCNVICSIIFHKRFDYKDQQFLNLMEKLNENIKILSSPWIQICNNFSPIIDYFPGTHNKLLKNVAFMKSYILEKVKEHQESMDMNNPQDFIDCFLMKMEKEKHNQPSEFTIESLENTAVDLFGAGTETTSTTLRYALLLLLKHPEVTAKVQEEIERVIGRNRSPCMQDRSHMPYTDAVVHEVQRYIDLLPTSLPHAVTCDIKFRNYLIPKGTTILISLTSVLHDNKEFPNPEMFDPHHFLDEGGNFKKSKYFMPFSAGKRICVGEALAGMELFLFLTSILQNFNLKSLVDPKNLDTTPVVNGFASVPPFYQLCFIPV

[18] = biological target: CYP2C19 (Homo sapiens, UniProt P33261); assay: Inhibition of CYP2C19 in human liver microsome at 10 uM pre-incubated with compound for 10 mins in presence of NADPH-regenerating system by LC-MS/MS analysis relative to control; assay type: ADME; settings: liver microsomes
Sequence of CYP2C19 (P33261 whole entry): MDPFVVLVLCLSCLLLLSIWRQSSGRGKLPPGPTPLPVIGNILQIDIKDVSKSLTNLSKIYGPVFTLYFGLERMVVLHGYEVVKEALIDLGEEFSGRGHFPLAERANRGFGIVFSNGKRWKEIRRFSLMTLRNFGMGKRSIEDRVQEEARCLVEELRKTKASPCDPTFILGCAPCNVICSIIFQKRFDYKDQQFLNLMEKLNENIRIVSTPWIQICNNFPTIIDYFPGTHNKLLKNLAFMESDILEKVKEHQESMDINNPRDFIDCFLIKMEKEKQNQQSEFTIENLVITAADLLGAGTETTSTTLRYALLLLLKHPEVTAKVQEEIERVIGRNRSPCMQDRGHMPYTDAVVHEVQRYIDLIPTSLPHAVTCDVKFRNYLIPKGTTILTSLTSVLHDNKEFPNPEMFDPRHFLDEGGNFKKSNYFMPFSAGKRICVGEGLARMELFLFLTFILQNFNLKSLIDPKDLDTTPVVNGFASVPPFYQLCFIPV

[19] = biological target: CYP2D6 (Homo sapiens, UniProt P10635); assay: Inhibition of CYP2D6 in human liver microsome at 10 uM pre-incubated with compound for 10 mins in presence of NADPH-regenerating system by LC-MS/MS analysis relative to control; assay type: ADME; settings: liver microsomes
Sequence of CYP2D6 (P10635 whole entry): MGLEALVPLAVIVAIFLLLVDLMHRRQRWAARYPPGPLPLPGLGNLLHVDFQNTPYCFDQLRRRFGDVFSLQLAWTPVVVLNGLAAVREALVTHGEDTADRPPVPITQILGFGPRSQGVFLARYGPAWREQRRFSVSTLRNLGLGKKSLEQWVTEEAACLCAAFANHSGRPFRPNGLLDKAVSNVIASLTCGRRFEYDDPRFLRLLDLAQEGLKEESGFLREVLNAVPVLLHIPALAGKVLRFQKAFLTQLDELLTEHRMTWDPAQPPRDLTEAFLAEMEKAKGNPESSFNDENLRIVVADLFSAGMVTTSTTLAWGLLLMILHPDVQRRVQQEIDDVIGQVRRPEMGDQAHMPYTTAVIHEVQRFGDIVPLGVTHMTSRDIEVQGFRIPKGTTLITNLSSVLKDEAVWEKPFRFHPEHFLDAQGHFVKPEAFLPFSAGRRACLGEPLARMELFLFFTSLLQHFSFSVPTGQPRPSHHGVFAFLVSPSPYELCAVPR

[20] = biological target: CYP3A4 (Homo sapiens, UniProt P08684); assay: Inhibition of CYP3A4 in human liver microsome at 10 uM pre-incubated with compound for 10 mins in presence of NADPH-regenerating system by LC-MS/MS analysis relative to control; assay type: ADME; settings: liver microsomes
Sequence of CYP3A4 (P08684 whole entry): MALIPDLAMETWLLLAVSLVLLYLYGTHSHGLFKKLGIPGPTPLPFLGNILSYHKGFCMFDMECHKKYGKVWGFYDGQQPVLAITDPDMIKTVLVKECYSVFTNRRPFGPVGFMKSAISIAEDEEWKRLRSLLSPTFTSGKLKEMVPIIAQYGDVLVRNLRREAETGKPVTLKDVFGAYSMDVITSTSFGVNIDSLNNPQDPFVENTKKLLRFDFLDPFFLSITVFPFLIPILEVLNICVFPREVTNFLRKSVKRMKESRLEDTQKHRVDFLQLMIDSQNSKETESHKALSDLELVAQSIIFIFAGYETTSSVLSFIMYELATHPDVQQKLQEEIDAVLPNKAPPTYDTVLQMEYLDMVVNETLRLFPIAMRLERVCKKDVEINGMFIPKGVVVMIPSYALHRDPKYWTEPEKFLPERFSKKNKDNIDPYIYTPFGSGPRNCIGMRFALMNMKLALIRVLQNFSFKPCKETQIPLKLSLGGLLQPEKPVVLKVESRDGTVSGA

[21] = Metabolic stability in human liver assessed as intrinsic clearance at 100 uM pre-incubated with compound for 60 mins followed by NADPH addition and measured up to 60 mins by LC-MS/MS analysis; assay type: ADME, tissue-based; settings: read-out: CLH
[22] = Plasma protein binding in human at 100 uM measured up to 120 mins by LC-MS/MS analysis relative to control; assay type: ADME, cell-free; settings: read-out: PPB (converted)
[23] = AUC (0 to t) in Sprague-Dawley rat at 2 mg/kg, iv measured after 24 hrs by LC-MS/MS analysis; assay type: ADME, organism-based; settings: in vivo
[24] = Volume of distribution in Sprague-Dawley rat at 2 mg/kg, iv measured after 24 hrs by LC-MS/MS analysis; assay type: ADME, organism-based; settings: in vivo
[25] = AUC (0 to t) in Sprague-Dawley rat at 30 mg/kg, po measured after 24 hrs by LC-MS/MS analysis; assay type: ADME, organism-based; settings: in vivo
[26] = Tmax in Sprague-Dawley rat at 30 mg/kg, po as submicron emulsion measured after 24 hrs by LC-MS/MS analysis; assay type: ADME, organism-based; settings: in vivo
[27] = AUC (0 to t) in Sprague-Dawley rat at 30 mg/kg, po as submicron emulsion measured after 24 hrs by LC-MS/MS analysis; assay type: ADME, organism-based; settings: in vivo
[28] = test system: HCT-116; assay: Antitumor activity against human HCT-116 cells xenografted in female BALB/c nu-nu mouse assessed as tumor growth inhibition at 20 mg/kg, po as submicron emulsion administered once daily for 3 weeks by vernier caliper analysis; assay type: functional, organism-based
[29] = test system: HCT-116; assay: Antitumor activity against human HCT-116 cells xenografted in female BALB/c nu-nu mouse assessed as increase in caspase-3 cleavage at 40 mg/kg, po incubated for 48 hrs by Western blot analysis; assay type: functional, organism-based
[30] = Toxicity in female BALB/c nu-nu mouse xenografted with human HCT-116 cells assessed as histopathological changes in spleen at 40 mg/kg, po administered once daily for 3 weeks by H and E staining based analysis; assay type: organism-based; settings: in vivo, 504 h
[31] = Toxicity in female BALB/c nu-nu mouse xenografted with human HCT-116 cells assessed as histopathological changes in kidney at 40 mg/kg, po administered once daily for 3 weeks by H and E staining based analysis; assay type: organism-based; settings: in vivo, 504 h
[32] = Toxicity in female BALB/c nu-nu mouse xenografted with human HCT-116 cells assessed as histopathological changes in kidney at 20 mg/kg, po as submicron emulsion administered once daily for 3 weeks by H and E staining based analysis; assay type: organism-based; settings: in vivo, 504 h
[33] = test system: HCT-116; assay: Antitumor activity against human HCT-116 cells xenografted in female BALB/c nu-nu mouse assessed as downregulation of Bcl-2 mRNA expression at 40 mg/kg, po incubated for 48 hrs by qRT-PCR analysis; assay type: functional, organism-based
[34] = test system: HCT-116; assay: Antitumor activity against human HCT-116 cells xenografted in female BALB/c nu-nu mouse assessed as reduction in Ki67 positive cells at 40 mg/kg, po by staining based analysis; assay type: functional, organism-based

SMILES: CC(C)Oc1cc(F)ccc1-c1ccnc(NC(=O)Nc2cccc(C(=O)N3CCN(C)CC3)c2)c1
- IC50 [1]: 6.51 nM
- GI50 [2]: 190 nM
- IC50 [3]: 1820 nM
- Activity [4]: Active
- Activity [5]: Toxic
- Activity [6]: Dose-dependent-effect
- Activity [7]: Dose-dependent-effect
- Activity [8]: Active
- Activity [9]: Active
- Activity [10]: Active
- Activity [11]: Dose-dependent-effect
- inhibition [12]: Active
- Activity [13]: Active
- Activity [14]: Active
- microsomal CLint at 100 µM [15]: 352 µL/min/mg
- half-life at 100 µM [16]: > 289 min
- inhibition at 10 µM [17]: 15.9%
- inhibition at 10 µM [18]: 69.6%
- inhibition at 10 µM [19]: 42.6%
- inhibition at 10 µM [20]: 5.2%
- CLint scaled at 100 µM [21]: 317 mL/min/kg
- fraction unbound at 2 h, 100 µM [22]: 0.006
- AUC(0-t) at 24 h [23]: 403 ng·h/mL
- Vd [24]: 1.65 L/kg
- AUC(0-t) at 24 h [25]: 897 ng·h/mL
- Tmax [26]: 30 min
- AUC(0-t) at 24 h [27]: 1610 ng·h/mL
- Activity [28]: Active
- Activity [29]: Active
- Activity [30]: Non-toxic
- Activity [31]: Non-toxic
- Activity [32]: Non-toxic
- Activity [33]: Active
- Activity [34]: Active
